Data published in patent publication US5011828A, “Immunostimulating guanine derivatives, compositions and methods” (priority 1988, dated 1991).

Key:
[1] = test system: anti-TNP-BSA antibody titers in CBA/CaJ mice; assay: In vivo anti-TNP-BSA antibody response (ELISA); set-up: species or system mouse; settings: i.p., 0.2 ml at 5 mg/ml, 37 days
Protocol: FIG. 4 is a graph containing a number of plots that illustrate the in vivo kinetics of enhanced anti-trinitrophenyl bovine serum albumin (TNP-BSA) antibody responses elicited by contacting leukocytes in vivo with a composition containing 7-allyl-8-mercaptoguanosine (7a8MGuo). Here, the guanosine derivative (0.2 ml of 7a8MGuo at 5 mg/ml) was in a vehicle of 100 percent sesame oil (solid line) or 2 percent sesame oil in saline (dotted line) when introduced into the animal.
Three groups of CBA/CaJ mice were utilized. Each group was immunized with the TNP-BSA conjugate. […]
Antibody titers to TNP-BSA were determined over a period of 37 days using standard enzyme-linked immunosorbent assay (ELISA) procedures with TNP-BSA as antigen. […]
CBA/CaJ mice were immunized intraperitonally (i.p.) using a conjugate (TNP-BSA) prepared by the reaction of 2,4,6-trinitrobenzene sulfonic acid (TNBS) and bovine serum albumin (BSA) in a 0.28 molar cacodylate buffer, at pH 6.9. […] Anti-TNP-BSA antibody secretion from each group was thereafter monitored over a period of 37 days by standard enzyme-linked immunosorbant assay (ELISA) techniques using TNP-BSA as antigen.
Injections. […] Anti-TNP-BSA antibody titers were determined using standard techniques.

[2] = test system: murine lymphocytes (sheep red blood cells as antigen); assay: Antigen-specific adjuvanticity: direct anti-SRBC plaque forming cells, murine system; format: cell-based, mouse; settings: for Direct anti-SRBC PFC/Culture at supraoptimal concentration: 3 × 10^-4 M
Outline: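 Murine spleen cells (5×10^6 to 10^7) cultured 4 or 5 days in 1.0 ml 5% FCS RPMI 1640, 37 °C, 10% CO2, with or without SRBC immunogen. Anti-SRBC direct plaque-forming cells counted per culture by modified Jerne–Nordin hemolytic plaque assay with guinea pig complement; mean ± standard error at peak concentration.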

Structure (SMILES): C=CCn1c(=S)n([C@@H]2O[C@H](CO)[C@@H](O)[C@H]2O)c2nc(N)[nH]c(=O)c21 [7a8MGuo, 7-(2-Propenyl)-8-thioxoguanosine]
- anti-TNP-BSA antibody titer, ratio to control ([1]; 2 percent sesame oil in saline vehicle): about 4 times
- anti-TNP-BSA antibody titer, ratio to control ([1]; 100 percent sesame oil vehicle): about 5 times
- Direct anti-SRBC PFC/Culture at supraoptimal concentration ([2]; Table 5, supraoptimal concentration (*)): 925 ± 80 PFC/Culture
- Peak Direct anti-SRBC PFC/Culture ([2]; Table 5, murine system, at peak concentration): 1850 ± 70 PFC/Culture
- Peak Direct anti-SRBC PFC/Culture ([2]; Table 6, murine system, at peak concentration): 1867 ± 150 PFC/Culture
- Peak Direct anti-SRBC PFC/Culture ([2]; Table 6, study a): 1850 ± 50 PFC/Culture
- Direct anti-SRBC PFC/Culture at supraoptimal concentration ([2]; Table 6, study b, supraoptimal amount (*)): 925 ± 80 PFC/Culture
- Peak Direct anti-SRBC PFC/Culture ([2]; Table 6, study c): 1975 ± 109 PFC/Culture
- Direct Anti-SRBC PFC/Culture ([2]; Table 8, 1 × 10^-5 M): 1049 PFC/Culture
- Average 1 Log Plaque Values ([2]; Table 9, murine, * = single study): 326,840 ± 170,907 per micromole
- adjuvanticity higher / more active than comparison compound of U.S. Pat. No. 4,643,992 ([2]; murine system (Table 5), vs 7m8oGuo or compounds of that patent): more than 100%
